From the NIST ThermoML archive (doi:10.1021/je7000667)

Assay: xn = mol fraction of the nth substance listed
Conditions: Gas, Burnett expansion method

FC(C(F)(F)F)C(F)(F)F [1,1,1,2,3,3,3-heptafluoropropane] + FCF
Conditions | mass density [kg/m3]
360 K, 221.36 kPa, x2 = 0.5155 | 8.234
360 K, 239.67 kPa, x2 = 0.2648 | 11.408
360 K, 243.21 kPa, x2 = 0.7809 | 6.433
360 K, 303.15 kPa, x2 = 0.5155 | 11.36
360 K, 327.36 kPa, x2 = 0.2648 | 15.74
360 K, 333.32 kPa, x2 = 0.7809 | 8.875
360 K, 414 kPa, x2 = 0.5155 | 15.673
360 K, 445.38 kPa, x2 = 0.2648 | 21.715
360 K, 455.62 kPa, x2 = 0.7809 | 12.244
360 K, 563.21 kPa, x2 = 0.5155 | 21.622
360 K, 602.72 kPa, x2 = 0.2648 | 29.96
360 K, 620.87 kPa, x2 = 0.7809 | 16.892
360 K, 761.94 kPa, x2 = 0.5155 | 29.83
360 K, 809.48 kPa, x2 = 0.2648 | 41.334
360 K, 842.09 kPa, x2 = 0.7809 | 23.305
360 K, 1023.1 kPa, x2 = 0.5155 | 41.153
360 K, 1075.4 kPa, x2 = 0.2648 | 57.027
360 K, 1134.1 kPa, x2 = 0.7809 | 32.152
360 K, 1359.1 kPa, x2 = 0.5155 | 56.775
360 K, 1407.1 kPa, x2 = 0.2648 | 78.678
360 K, 1513.7 kPa, x2 = 0.7809 | 44.316
360 K, 1778.5 kPa, x2 = 0.5155 | 78.326
360 K, 1801.2 kPa, x2 = 0.2648 | 108.549
360 K, 1995.5 kPa, x2 = 0.7809 | 61.139
360 K, 2234.4 kPa, x2 = 0.2648 | 149.76
360 K, 2279 kPa, x2 = 0.5155 | 108.059
360 K, 2584.7 kPa, x2 = 0.7809 | 84.349
360 K, 2647.8 kPa, x2 = 0.2648 | 206.618
360 K, 2834.8 kPa, x2 = 0.5155 | 149.078
370 K, 180 kPa, x2 = 0.2648 | 8.265
370 K, 227.73 kPa, x2 = 0.5155 | 8.23
370 K, 246.7 kPa, x2 = 0.2648 | 11.403
370 K, 250.16 kPa, x2 = 0.7809 | 6.429
370 K, 312.04 kPa, x2 = 0.5155 | 11.355
370 K, 337.19 kPa, x2 = 0.2648 | 15.732
370 K, 343.02 kPa, x2 = 0.7809 | 8.87
370 K, 426.48 kPa, x2 = 0.5155 | 15.665
370 K, 459.23 kPa, x2 = 0.2648 | 21.704
370 K, 469.2 kPa, x2 = 0.7809 | 12.238
370 K, 580.8 kPa, x2 = 0.5155 | 21.611
370 K, 622.4 kPa, x2 = 0.2648 | 29.945
370 K, 639.98 kPa, x2 = 0.7809 | 16.884
370 K, 786.9 kPa, x2 = 0.5155 | 29.815
370 K, 837.7 kPa, x2 = 0.2648 | 41.314
370 K, 869.16 kPa, x2 = 0.7809 | 23.293
370 K, 1058.9 kPa, x2 = 0.5155 | 41.133
370 K, 1116.3 kPa, x2 = 0.2648 | 56.999
370 K, 1172.8 kPa, x2 = 0.7809 | 32.136
370 K, 1411 kPa, x2 = 0.5155 | 56.746
370 K, 1467.3 kPa, x2 = 0.2648 | 78.639
370 K, 1569.4 kPa, x2 = 0.7809 | 44.294
370 K, 1854.7 kPa, x2 = 0.5155 | 78.287
370 K, 1891.2 kPa, x2 = 0.2648 | 108.495
370 K, 2076.9 kPa, x2 = 0.7809 | 61.109
370 K, 2371.1 kPa, x2 = 0.2648 | 149.686
370 K, 2392.6 kPa, x2 = 0.5155 | 108.005
370 K, 2705.2 kPa, x2 = 0.7809 | 84.308
370 K, 2859.2 kPa, x2 = 0.2648 | 206.516
370 K, 3006.5 kPa, x2 = 0.5155 | 149.004
390 K, 190.02 kPa, x2 = 0.2648 | 8.257
390 K, 240.4 kPa, x2 = 0.5155 | 8.222
390 K, 260.65 kPa, x2 = 0.2648 | 11.392
390 K, 264.02 kPa, x2 = 0.7809 | 6.423
390 K, 329.74 kPa, x2 = 0.5155 | 11.344
390 K, 356.74 kPa, x2 = 0.2648 | 15.716
390 K, 362.31 kPa, x2 = 0.7809 | 8.862
390 K, 451.27 kPa, x2 = 0.5155 | 15.65
390 K, 486.71 kPa, x2 = 0.2648 | 21.683
390 K, 496.17 kPa, x2 = 0.7809 | 12.226
390 K, 615.63 kPa, x2 = 0.5155 | 21.59
390 K, 661.34 kPa, x2 = 0.2648 | 29.916
390 K, 677.89 kPa, x2 = 0.7809 | 16.867
390 K, 836.32 kPa, x2 = 0.5155 | 29.786
390 K, 893.34 kPa, x2 = 0.2648 | 41.274
390 K, 922.76 kPa, x2 = 0.7809 | 23.271
390 K, 1129.5 kPa, x2 = 0.5155 | 41.093
390 K, 1196.7 kPa, x2 = 0.2648 | 56.943
390 K, 1249.8 kPa, x2 = 0.7809 | 32.105
390 K, 1513 kPa, x2 = 0.5155 | 56.692
390 K, 1584.8 kPa, x2 = 0.2648 | 78.563
390 K, 1679.1 kPa, x2 = 0.7809 | 44.251
390 K, 2003.7 kPa, x2 = 0.5155 | 78.212
390 K, 2065.6 kPa, x2 = 0.2648 | 108.39
390 K, 2236.4 kPa, x2 = 0.7809 | 61.05
390 K, 2613.6 kPa, x2 = 0.5155 | 107.901
390 K, 2634 kPa, x2 = 0.2648 | 149.541
390 K, 2940 kPa, x2 = 0.7809 | 84.226
390 K, 3260.4 kPa, x2 = 0.2648 | 206.316
390 K, 3338.4 kPa, x2 = 0.5155 | 148.86
410 K, 105.73 kPa, x2 = 0.2648 | 4.333
410 K, 106.47 kPa, x2 = 0.7809 | 2.443
410 K, 133.75 kPa, x2 = 0.5155 | 4.316
410 K, 145.48 kPa, x2 = 0.2648 | 5.979
410 K, 146.65 kPa, x2 = 0.7809 | 3.371
410 K, 184.04 kPa, x2 = 0.5155 | 5.954
410 K, 199.99 kPa, x2 = 0.2648 | 8.248
410 K, 201.86 kPa, x2 = 0.7809 | 4.651
410 K, 253.05 kPa, x2 = 0.5155 | 8.214
410 K, 274.54 kPa, x2 = 0.2648 | 11.38
410 K, 277.79 kPa, x2 = 0.7809 | 6.417
410 K, 347.32 kPa, x2 = 0.5155 | 11.332
410 K, 376.14 kPa, x2 = 0.2648 | 15.701
410 K, 381.49 kPa, x2 = 0.7809 | 8.853
410 K, 475.89 kPa, x2 = 0.5155 | 15.634
410 K, 513.94 kPa, x2 = 0.2648 | 21.661
410 K, 522.95 kPa, x2 = 0.7809 | 12.214
410 K, 650.2 kPa, x2 = 0.5155 | 21.568
410 K, 699.84 kPa, x2 = 0.2648 | 29.885
410 K, 715.45 kPa, x2 = 0.7809 | 16.85
410 K, 885.1 kPa, x2 = 0.5155 | 29.756
410 K, 948.18 kPa, x2 = 0.2648 | 41.232
410 K, 975.71 kPa, x2 = 0.7809 | 23.247
410 K, 1199.1 kPa, x2 = 0.5155 | 41.051
410 K, 1275.5 kPa, x2 = 0.2648 | 56.886
410 K, 1325.1 kPa, x2 = 0.7809 | 32.073
410 K, 1613 kPa, x2 = 0.5155 | 56.634
410 K, 1699.6 kPa, x2 = 0.2648 | 78.483
410 K, 1786.7 kPa, x2 = 0.7809 | 44.206
410 K, 2149.2 kPa, x2 = 0.5155 | 78.132
410 K, 2235 kPa, x2 = 0.2648 | 108.28
410 K, 2392.4 kPa, x2 = 0.7809 | 60.988
410 K, 2828 kPa, x2 = 0.5155 | 107.791
410 K, 2887.1 kPa, x2 = 0.2648 | 149.389
410 K, 3168.3 kPa, x2 = 0.7809 | 84.141
410 K, 3641.6 kPa, x2 = 0.2648 | 206.107
410 K, 3658.2 kPa, x2 = 0.5155 | 148.709
